Assay results reported in the NIST ThermoML archive (doi:10.1016/j.jct.2018.12.012).

Assay: xn = mol fraction of the nth substance listed
Conditions: 100 kPa, Liquid; for speed of sound: Frequency=3 MHz, Single path-length method; for mass density: Vibrating tube method

CCCCNCCCC [dibutylamine] + CCC(C)O
Conditions	mass density, 293.15 K [kg/m3]	mass density, 298.15 K [kg/m3]	mass density, 303.15 K [kg/m3]	mass density, 308.15 K [kg/m3]	speed of sound, 293.15 K [m/s]	speed of sound, 298.15 K [m/s]	speed of sound, 303.15 K [m/s]	speed of sound, 308.15 K [m/s]
x1 = 0.0995	802.339	798.045	793.785	789.452	1242.3	1223.7	1205	1186.7
x1 = 0.2027	796.429	792.197	787.914	783.574	1249.9	1231	1211.9	1193.6
x1 = 0.3027	791.522	787.26	782.952	778.597	1254.5	1235.3	1216.2	1197.1
x1 = 0.3993	786.764	782.487	778.177	773.83	1257.8	1238.8	1219.4	1200.1
x1 = 0.4995	781.846	777.578	773.281	768.951	1260.6	1241.1	1221.7	1202.6
x1 = 0.6007	776.991	772.741	768.441	764.17	1261	1241.4	1221.9	1202.6
x1 = 0.7	772.61	768.394	764.156	759.896	1261.9	1242.7	1223.1	1203.9
x1 = 0.8002	768.643	764.449	760.24	756.011	1263.6	1243.7	1224	1204.4
x1 = 0.8989	764.755	760.595	756.428	752.248	1264.1	1244.4	1224.6	1204.8
x1 = 1	759.579	755.48	751.374	747.268	1260.1	1240.1	1220.3	1200.6

CCCCNCCCC [dibutylamine] + CCCC(C)O
Conditions	mass density, 293.15 K [kg/m3]	mass density, 298.15 K [kg/m3]	mass density, 303.15 K [kg/m3]	mass density, 308.15 K [kg/m3]	speed of sound, 293.15 K [m/s]	speed of sound, 298.15 K [m/s]	speed of sound, 303.15 K [m/s]	speed of sound, 308.15 K [m/s]
x1 = 0.1007	804.553	800.484	796.354	792.163	1257.5	1238.8	1220.2	1201.8
x1 = 0.1998	799.644	795.528	791.368	787.153	1261.6	1243	1224.2	1205.4
x1 = 0.3001	794.588	790.443	786.26	782.034	1264.1	1245.1	1226.2	1207.6
x1 = 0.4	789.453	785.286	781.088	776.854	1265	1246.3	1227.2	1208.3
x1 = 0.5004	784.348	780.174	775.972	771.739	1265.7	1246.5	1227.4	1208.4
x1 = 0.6	779.579	775.399	771.197	766.971	1266	1247	1227.7	1208.5
x1 = 0.7004	774.754	770.581	766.391	762.183	1266.2	1246.7	1227.3	1208.2
x1 = 0.7993	770.026	765.866	761.694	757.505	1265.8	1246.4	1227.8	1207.2
x1 = 0.9004	765.576	761.434	757.282	753.116	1265.8	1245.8	1226	1206.7
x1 = 1	759.579	755.48	751.374	747.268	1260.1	1240.1	1220.3	1200.6

CC(C)NC(C)C [diisopropylamine] + CCC(C)O
Conditions	mass density, 293.15 K [kg/m3]	mass density, 298.15 K [kg/m3]	mass density, 303.15 K [kg/m3]	mass density, 308.15 K [kg/m3]	speed of sound, 293.15 K [m/s]	speed of sound, 298.15 K [m/s]	speed of sound, 303.15 K [m/s]	speed of sound, 308.15 K [m/s]
x1 = 0.1005	799.801	795.472	791.07	786.592	1230.8	1211.7	1192.3	1173.4
x1 = 0.1994	792.039	787.516	782.932	778.279	1226.2	1205.7	1185.3	1165
x1 = 0.3003	783.508	778.829	774.115	769.331	1217.3	1196.2	1175.6	1154
x1 = 0.3999	774.58	769.813	765.003	760.146	1205.6	1183.8	1162.3	1141.1
x1 = 0.5	764.776	759.954	755.099	750.197	1191	1169.2	1147.4	1125.6
x1 = 0.5961	755.456	750.604	745.72	740.801	1176.6	1154.3	1132.2	1110.4
x1 = 0.6964	745.553	740.705	735.88	731.103	1160.7	1139	1116.3	1094.2
x1 = 0.7997	736.007	731.125	726.228	721.299	1145.2	1122.7	1100.3	1078.3
x1 = 0.8967	726.62	721.759	716.873	711.96	1129.7	1107	1084.5	1062.5
x1 = 1	717.305	712.441	707.55	702.661	1116.4	1093.8	1071.1	1043.5

CC(C)NC(C)C [diisopropylamine] + CCCC(C)O
Conditions	mass density, 293.15 K [kg/m3]	mass density, 298.15 K [kg/m3]	mass density, 303.15 K [kg/m3]	mass density, 308.15 K [kg/m3]	speed of sound, 293.15 K [m/s]	speed of sound, 298.15 K [m/s]	speed of sound, 303.15 K [m/s]	speed of sound, 308.15 K [m/s]
x1 = 0.0998	803.093	798.887	794.621	790.277	1248.1	1229	1209.9	1190.3
x1 = 0.2001	795.724	791.357	786.936	782.457	1241.1	1220.9	1200.8	1181.5
x1 = 0.3	787.848	783.455	778.721	774.03	1230	1209.5	1189.3	1168.8
x1 = 0.4001	778.463	773.871	769.242	764.565	1216.8	1196.3	1175.3	1154.3
x1 = 0.5006	768.901	764.237	759.54	754.802	1201.8	1180.2	1158.9	1137.8
x1 = 0.6001	758.906	754.192	749.437	744.665	1185.2	1164	1142.1	1120.9
x1 = 0.678	751.419	746.673	741.893	737.079	1172.8	1151	1129.1	1107.4
x1 = 0.7975	738.446	733.65	728.827	723.973	1152.6	1130.2	1108.1	1086.2
x1 = 0.8993	728.166	723.262	718.39	713.692	1132.8	1110.2	1087.8	1063.8
x1 = 1	717.305	712.441	707.55	702.661	1116.4	1093.8	1071.1	1043.5
